Measured values as given in patent US20230406885A1, “CYCLIC PEPTIDES FOR TRAPPING INTERLEUKIN-1 BETA” (MERCK SHARP & DOHME LLC, priority 2022, published 2023).
Where a SMILES comes first, the peptide text is derived from it. [ ]: non-standard residue; d: D form. Trp(βS-Me,4-F) = C[C@@H](c1c[nH]c2cccc(F)c12)[C@H](N)C(=O)O; Bip(4'-COOH) = N[C@@H](Cc1ccc(-c2ccc(C(=O)O)cc2)cc1)C(=O)O; 1Nal(3S-Me) = C[C@@H](c1cccc2ccccc12)[C@H](N)C(=O)O; Phe(4-COOH) = N[C@@H](Cc1ccc(C(=O)O)cc1)C(=O)O; h3Pal(5-CN) = N#Cc1cncc(CC[C@H](N)C(=O)O)c1; Pro(4R-NH2) = N[C@H]1CN[C@H](C(=O)O)C1; 1Nal = N[C@@H](Cc1cccc2ccccc12)C(=O)O; AEF = NCCOc1ccc(C[C@H](N)C(=O)O)cc1; hTyr = N[C@@H](CCc1ccc(O)cc1)C(=O)O; 4Pal = N[C@@H](Cc1ccncc1)C(=O)O; dDab = NCC[C@@H](N)C(=O)O; dNMeA = CN[C@H](C)C(=O)O; Dab = NCC[C@H](N)C(=O)O; Nva = CCC[C@H](N)C(=O)O; Dap = NC[C@H](N)C(=O)O; Aib = CC(C)(N)C(=O)O

Target: T1, Recombinant human IL-1β (Homo sapiens, UniProt P01584)
T1 construct: purchased BioLegend 579404
T1 sequence (P01584 117-269): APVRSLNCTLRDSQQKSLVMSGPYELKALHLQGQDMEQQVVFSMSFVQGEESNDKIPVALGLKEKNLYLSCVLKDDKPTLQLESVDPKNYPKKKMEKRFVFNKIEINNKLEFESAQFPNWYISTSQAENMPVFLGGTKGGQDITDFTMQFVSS
Assay: IL-6 assay in MRC5 cells: inhibition of IL-1β induced IL-6 secretion (AlphaLISA)
Type: cell-based
Conditions: inhibition of IL-1β induced IL-6 secretion in MRC5 cells; IL-1β pre-incubated 1 hour with compound; read-out: MRC5 IC50
Procedure, shortened: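 IL-1β at 2×EC80 in seeding medium (EMEM, 0.025% BSA) preincubated 1 h at ambient temperature with compound, then 3000 MRC5 cells/well added and incubated overnight at 37 °C, 5% CO2. IL-6 in conditioned medium quantified by AlphaLISA; IC50 from 4-parameter logistic fit.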

Compound | IC50 [nM]
C[C@@H]1C(=O)NCC(=O)N[C@@H](Cc2ccc(-c3ccc(C(=O)O)cc3)cc2)C(=O)N[C@@H](Cc2c[nH]c3ccccc23)C(=O)NCC(=O)N[C@H](CCN)C(=O)N[C@@H](CCc2ccc(O)cc2)C(=O)N[C@@H](Cc2ccc(-c3ccc(C(=O)O)cc3)cc2)C(=O)N[C@@H](Cc2c[nH]c3ccccc23)C(=O)N[C@@H](Cc2ccc(C(=O)O)cc2)C(=O)NCC(=O)N2C[C@H](N)C[C@H]2C(=O)N[C@@H]([C@@H](C)c2c[nH]c3cccc(F)c23)C(=O)N[C@@H](CC(=O)O)C(=O)N1C [Example 77] (cyclo([Bip(4'-COOH)]W[Phe(4-COOH)]G[Pro(4R-NH2)][Trp(βS-Me,4-F)]D[dNMeA]G[Bip(4'-COOH)]WG[dDab][hTyr])) | 0.0601
CC(C)C[C@@H]1NC(=O)[C@H](CCCCN)NC(=O)[C@H](Cc2ccc(-c3ccc(C(=O)O)cc3)cc2)NC(=O)CNC(=O)[C@@H](C)N(C)C(=O)[C@H](CC(=O)O)NC(=O)[C@H]([C@@H](C)c2c[nH]c3cccc(F)c23)NC(=O)[C@@H]2C[C@@H](N)CN2C(=O)CNC(=O)[C@H](Cc2ccc(C(=O)O)cc2)NC(=O)[C@H](Cc2c[nH]c3ccccc23)NC(=O)[C@H](Cc2ccc(-c3ccc(C(=O)O)cc3)cc2)NC(=O)[C@H](CCc2ccc(O)cc2)NC(=O)[C@@H](C)NC1=O [Example 67] (cyclo([Bip(4'-COOH)]W[Phe(4-COOH)]G[Pro(4R-NH2)][Trp(βS-Me,4-F)]D[dNMeA]G[Bip(4'-COOH)]KL[dA][hTyr])) | 0.046
C[C@@H]1C(=O)NCC(=O)N[C@@H](Cc2ccc(-c3ccc(C(=O)O)cc3)cc2)C(=O)N[C@@H](Cc2ccncc2)C(=O)N[C@@H](CN)C(=O)N[C@H](C)C(=O)N[C@@H](CCc2cncc(C#N)c2)C(=O)N[C@@H](Cc2ccc(-c3ccc(C(=O)O)cc3)cc2)C(=O)N[C@@H](Cc2c[nH]c3ccccc23)C(=O)N[C@@H](Cc2ccc(C(=O)O)cc2)C(=O)NCC(=O)N2C[C@H](N)C[C@H]2C(=O)N[C@@H]([C@@H](C)c2cccc3ccccc23)C(=O)N[C@@H](CC(=O)O)C(=O)N1C [Example 21] (cyclo([Bip(4'-COOH)]W[Phe(4-COOH)]G[Pro(4R-NH2)][1Nal(3S-Me)]D[dNMeA]G[Bip(4'-COOH)][4Pal][Dap][dA][h3Pal(5-CN)])) | 0.0234
C[C@@H]1C(=O)NCC(=O)N[C@@H](Cc2ccc(-c3ccc(C(=O)O)cc3)cc2)C(=O)N[C@@H](Cc2cccc3ccccc23)C(=O)N[C@@H](CCN)C(=O)NC(C)(C)C(=O)N[C@@H](CCc2ccc(O)cc2)C(=O)N[C@@H](Cc2ccc(-c3ccc(C(=O)O)cc3)cc2)C(=O)N[C@@H](Cc2c[nH]c3ccccc23)C(=O)N[C@@H](Cc2ccc(C(=O)O)cc2)C(=O)NCC(=O)N2C[C@H](N)C[C@H]2C(=O)N[C@@H]([C@@H](C)c2cccc3ccccc23)C(=O)N[C@@H](CC(=O)O)C(=O)N1C [Example 16] (cyclo([Bip(4'-COOH)]W[Phe(4-COOH)]G[Pro(4R-NH2)][1Nal(3S-Me)]D[dNMeA]G[Bip(4'-COOH)][1Nal][Dab][Aib][hTyr])) | 0.175
C[C@@H]1C(=O)NCC(=O)N[C@@H](Cc2ccc(-c3ccc(C(=O)O)cc3)cc2)C(=O)N[C@@H](Cc2cccc3ccccc23)C(=O)N[C@@H](CCN)C(=O)NC(C)(C)C(=O)NCC(=O)N[C@@H](Cc2ccc(-c3ccc(C(=O)O)cc3)cc2)C(=O)N[C@@H](Cc2c[nH]c3ccccc23)C(=O)N[C@@H](Cc2ccc(C(=O)O)cc2)C(=O)NCC(=O)N2C[C@H](N)C[C@H]2C(=O)N[C@@H]([C@@H](C)c2cccc3ccccc23)C(=O)N[C@@H](CC(=O)O)C(=O)N1C [Example 15] (cyclo([Bip(4'-COOH)]W[Phe(4-COOH)]G[Pro(4R-NH2)][1Nal(3S-Me)]D[dNMeA]G[Bip(4'-COOH)][1Nal][Dab][Aib]G)) | 0.653

Further lines, results first:

IC50 [nM] | Compound
0.494 | CCC[C@@H]1NC(=O)[C@H](Cc2cccc3ccccc23)NC(=O)[C@H](Cc2ccc(-c3ccc(C(=O)O)cc3)cc2)NC(=O)CNC(=O)[C@@H](C)N(C)C(=O)[C@H](CC(=O)O)NC(=O)[C@H]([C@@H](C)c2cccc3ccccc23)NC(=O)[C@@H]2C[C@@H](N)CN2C(=O)CNC(=O)[C@H](Cc2ccc(C(=O)O)cc2)NC(=O)[C@H](Cc2c[nH]c3ccccc23)NC(=O)[C@H](Cc2ccc(OCCNC(C)=O)cc2)NC(=O)[C@H](C)NC(=O)[C@@H](C)NC1=O [Example 98] (cyclo([AEF](Ac)W[Phe(4-COOH)]G[Pro(4R-NH2)][1Nal(3S-Me)]D[dNMeA]G[Bip(4'-COOH)][1Nal][Nva][dA]A))
0.492 | CC(=O)NCCOc1ccc(C[C@@H]2NC(=O)[C@H](CCc3ccc(O)cc3)NC(=O)[C@@H](C)NC(=O)[C@H](CCN)NC(=O)[C@H](Cc3c[nH]c4ccccc34)NC(=O)[C@H](Cc3ccc(-c4ccc(C(=O)O)cc4)cc3)NC(=O)CNC(=O)[C@@H](C)N(C)C(=O)[C@H](CC(=O)O)NC(=O)[C@H]([C@@H](C)c3cccc4ccccc34)NC(=O)[C@@H]3C[C@@H](N)CN3C(=O)CNC(=O)[C@H](Cc3ccc(C(=O)O)cc3)NC(=O)[C@H](Cc3c[nH]c4ccccc34)NC2=O)cc1 [Example 116] (cyclo([AEF](Ac)W[Phe(4-COOH)]G[Pro(4R-NH2)][1Nal(3S-Me)]D[dNMeA]G[Bip(4'-COOH)]W[Dab][dA][hTyr]))
